Assay: Odor panel rating of glucose/gluconic acid solutions inoculated with odorous filtrate
Settings: capped beakers, 40° C., 7 days
Method: Another 250 mL of (4) 10 mM glucose was put it in beaker 4. 20 mg protein/L of carbohydrate oxidase (Microdochium nivale carbohydrate oxidase, Novozymes A/S) was added to beaker 4 and it was kept at a 40° C. for 1 hr. 0.5 mL of odorous 3-day filtrate from the aerobic control in Example 2 was added to all of the beakers. The beaker were capped and placed in a 40° C. water bath for 7 days. At the end of the incubation, a panel smelled the samples as described in Example 1.

SMILES: O=C(O)[C@H](O)[C@@H](O)[C@H](O)[C@H](O)CO [Gluconic Acid, gluconic acid]
- formation of odor (in words): will not lead to odorous smell
- Odor Level (0.5 mL odorous filtrate added, rating 1 to 5, 5 worst): 1

Source: patent publication US20050019315A1, “Odor control compositions and methods” (Novozymes North America, Inc., priority 2003, published 2005)
